This is an account of results in PubChem BioAssay (NCI).

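Briefly, cells in 96-well plates were exposed to five compound concentrations for 48 h, and endpoints were estimated by linear interpolation. Definition used: TGI = concentration required for complete inhibition of growth.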

Test systems include A498 renal; HCT-15 colon; CCRF-CEM leukemia; 786-0 renal; NCI/ADR-RES ovarian; HL-60(TB) leukemia; CAKI-1 renal; KM12 colon; SK-MEL-28 melanoma; TK-10 renal; SK-OV-3 ovarian; SF-539 CNS; NCI-H226 lung; SF-268 CNS; SF-295 CNS; SK-MEL-2 melanoma; PC-3 prostate; BT-549 breast; MDA-MB-231 breast; A549 NSCLC.
What all share (test): NCI anticancer screen, dose series, 48 h

As to `COc1ccc(-c2c(C#N)c(-c3ccc(C)cc3)n(NS(=O)(=O)c3ccccc3)c(=O)c2C#N)cc1`, the TGI with A498 renal is > 100 µM; in the experiment on HCT-15 colon, > 100 µM; in the experiment on CCRF-CEM leukemia, > 100 µM; in the experiment with 786-0 renal, > 100 µM; in the experiment on NCI/ADR-RES ovarian, > 100 µM; with HL-60(TB) leukemia, 52.3 µM. Further, the TGI in the experiment with CAKI-1 renal, in the experiment on KM12 colon, in the experiment with SK-MEL-28 melanoma, with TK-10 renal, in the experiment on SK-OV-3 ovarian and with SF-539 CNS was > 100 µM throughout. Further, the TGI with NCI-H226 lung, in the experiment on SF-268 CNS, in the experiment on SF-295 CNS, in the experiment with SK-MEL-2 melanoma, in the experiment with PC-3 prostate and with BT-549 breast was > 100 µM in each case. Further, the TGI in the experiment on MDA-MB-231 breast and in the experiment with A549 NSCLC was > 100 µM each time.
For `O=S(=O)(N=S(c1ccc(Cl)cc1)c1ccc(Cl)cc1)c1ccccc1`, the TGI in the experiment on A498 renal, in the experiment on HCT-15 colon, with CCRF-CEM leukemia, in the experiment with 786-0 renal, in the experiment with NCI/ADR-RES ovarian and with HL-60(TB) leukemia was > 100 µM in each case. Also, the TGI in the experiment with CAKI-1 renal, in the experiment with KM12 colon, in the experiment with SK-MEL-28 melanoma, in the experiment with TK-10 renal, in the experiment with SK-OV-3 ovarian and in the experiment on SF-539 CNS was > 100 µM each time. Further, the TGI in the experiment with NCI-H226 lung, with SF-268 CNS, with SF-295 CNS, with SK-MEL-2 melanoma, in the experiment on PC-3 prostate and in the experiment on BT-549 breast was > 100 µM each time. In addition, the TGI in the experiment on MDA-MB-231 breast and in the experiment on A549 NSCLC was > 100 µM throughout.
`Nc1cc2c3c(cccc3c1)C(=O)N(c1ccc(OCCN3CCCCC3)cc1)C2=O`: the TGI amounted to 31.9 µM in the experiment with A498 renal; 25.4 µM with HCT-15 colon; 88.3 µM in the experiment with CCRF-CEM leukemia; 43.3 µM in the experiment with 786-0 renal; 40.9 µM in the experiment with NCI/ADR-RES ovarian; 26.5 µM in the experiment on HL-60(TB) leukemia. In addition, the TGI with CAKI-1 renal worked out at 32.4 µM; with KM12 colon, 41.3 µM; in the experiment with SK-MEL-28 melanoma, 44.8 µM; in the experiment with TK-10 renal, 31.3 µM; with SK-OV-3 ovarian, 31.7 µM; in the experiment with SF-539 CNS it was 27.9 µM. Besides, the TGI in the experiment with NCI-H226 lung worked out at 42.1 µM; in the experiment on SF-268 CNS, 37.7 µM; with SF-295 CNS, 33.4 µM; in the experiment with SK-MEL-2 melanoma it was 31.6 µM; with PC-3 prostate it was 32.9 µM; with BT-549 breast, 38.4 µM. Further, the TGI is 31.5 µM in the experiment on MDA-MB-231 breast and 28.2 µM in the experiment with A549 NSCLC.
With `NS(=O)(=O)c1ccc(NNc2c3ccccc3nc3ccccc23)cc1`, the TGI with A498 renal stood at 53.9 µM; in the experiment on HCT-15 colon, 15.5 µM; with CCRF-CEM leukemia, 18.5 µM; in the experiment on 786-0 renal, 17.4 µM; in the experiment with NCI/ADR-RES ovarian, 24.5 µM; in the experiment on HL-60(TB) leukemia, 19.9 µM. In addition, the TGI with CAKI-1 renal came out at 18.9 µM; in the experiment with KM12 colon it was 16.5 µM; in the experiment on SK-MEL-28 melanoma, 17.1 µM; in the experiment on TK-10 renal, 26.4 µM; in the experiment on SK-OV-3 ovarian it was 24.5 µM; with SF-539 CNS, 17.2 µM. Besides, the TGI with NCI-H226 lung amounted to 18.8 µM; with SF-268 CNS, 17.7 µM; with SF-295 CNS, 19.8 µM; in the experiment on SK-MEL-2 melanoma, 18.1 µM; with PC-3 prostate it was 16.1 µM; in the experiment with BT-549 breast it was 15.1 µM. The TGI in the experiment with MDA-MB-231 breast amounted to 25.9 µM; with A549 NSCLC, 25.6 µM.
Consider `O=[N+]([O-])c1ccc2c(c1)c(N=NC(=S)NC1CCCCC1)c(O)n2CN1CCOCC1`, for which the TGI in the experiment with A498 renal amounted to 17.5 µM; in the experiment on HCT-15 colon it was 15.6 µM; with CCRF-CEM leukemia, 2.75 µM; in the experiment with 786-0 renal it was 18.6 µM; in the experiment on NCI/ADR-RES ovarian it was 18.7 µM; with HL-60(TB) leukemia, 17.2 µM. In addition, the TGI in the experiment on CAKI-1 renal is 14.3 µM; in the experiment with KM12 colon it was 18 µM; with SK-MEL-28 melanoma it was 25.6 µM; in the experiment with TK-10 renal it was 19.4 µM; in the experiment with SK-OV-3 ovarian, 25.9 µM; in the experiment on SF-539 CNS, 25.4 µM. The TGI in the experiment with NCI-H226 lung is 66 µM; in the experiment with SF-268 CNS, 19.2 µM; in the experiment with SF-295 CNS, 16.6 µM; with SK-MEL-2 melanoma it was 25.9 µM; in the experiment on PC-3 prostate it was 19 µM; with BT-549 breast it was 20.8 µM. The TGI in the experiment with MDA-MB-231 breast turned out to be 31.8 µM; with A549 NSCLC, 15.7 µM.
Turning to `CC(=O)CCNc1ccc(-c2cc(-c3ccc(N(C)C)cc3)nc3ccc4ccccc4c23)cc1`, the TGI with A498 renal is > 100 µM; in the experiment with HCT-15 colon it was > 100 µM; in the experiment with CCRF-CEM leukemia, > 100 µM; in the experiment with 786-0 renal, > 100 µM; in the experiment on NCI/ADR-RES ovarian, > 100 µM; in the experiment on HL-60(TB) leukemia it was 84.4 µM. The TGI in the experiment on CAKI-1 renal, with KM12 colon, in the experiment with SK-MEL-28 melanoma, with TK-10 renal, with SK-OV-3 ovarian and in the experiment with SF-539 CNS was > 100 µM throughout. The TGI was > 78.9 µM in the experiment on NCI-H226 lung; > 100 µM with SF-268 CNS; > 100 µM in the experiment with SF-295 CNS; > 100 µM with SK-MEL-2 melanoma; > 100 µM in the experiment on PC-3 prostate; > 100 µM in the experiment on BT-549 breast. The TGI in the experiment with MDA-MB-231 breast and in the experiment on A549 NSCLC was > 100 µM throughout.
In the case of `COc1ccc(N=c2ssc(C(=S)Nc3ccc(OC)cc3)c2S)cc1`, the TGI in the experiment with A498 renal, in the experiment with HCT-15 colon, in the experiment on CCRF-CEM leukemia, in the experiment with 786-0 renal, in the experiment on NCI/ADR-RES ovarian and in the experiment on HL-60(TB) leukemia was > 100 µM each time. For the same compound, the TGI with CAKI-1 renal, with KM12 colon, in the experiment with SK-MEL-28 melanoma, with TK-10 renal, with SK-OV-3 ovarian and in the experiment on SF-539 CNS was > 100 µM in each case. Moreover, the TGI in the experiment on NCI-H226 lung, with SF-268 CNS, in the experiment with SF-295 CNS, in the experiment on SK-MEL-2 melanoma, with PC-3 prostate and in the experiment on BT-549 breast was > 100 µM throughout. Further, the TGI with MDA-MB-231 breast and in the experiment on A549 NSCLC was > 100 µM throughout.
For `Oc1c2cc(Br)cc1CCc1cc(Br)cc(c1O)CC2`, the TGI in the experiment with A498 renal is 73.8 µM; with HCT-15 colon, 80.7 µM; in the experiment with CCRF-CEM leukemia, 97.5 µM; with 786-0 renal, > 100 µM; with NCI/ADR-RES ovarian, 57.2 µM; with HL-60(TB) leukemia it was 51.6 µM. Moreover, the TGI in the experiment on CAKI-1 renal was > 100 µM; in the experiment on KM12 colon it was 37.5 µM; in the experiment on SK-MEL-28 melanoma it was > 100 µM; in the experiment on TK-10 renal, 89.9 µM; in the experiment with SK-OV-3 ovarian, 76 µM; in the experiment on SF-539 CNS it was 58.6 µM. Besides, the TGI in the experiment with NCI-H226 lung was 59.5 µM; with SF-268 CNS it was > 100 µM; with SF-295 CNS it was 52.5 µM; in the experiment with SK-MEL-2 melanoma, 52.9 µM; in the experiment on PC-3 prostate, 55.8 µM; with BT-549 breast, 73.1 µM. In addition, the TGI in the experiment with MDA-MB-231 breast was 41.4 µM; in the experiment on A549 NSCLC, > 100 µM.
As to `CCOC(=O)C(Cc1c2ccccc2cc2ccccc12)(NC(C)=O)C(=O)OCC`, the TGI in the experiment with A498 renal, in the experiment with HCT-15 colon, with CCRF-CEM leukemia, in the experiment on 786-0 renal, in the experiment on NCI/ADR-RES ovarian and with HL-60(TB) leukemia was > 100 µM each time. Moreover, the TGI in the experiment with CAKI-1 renal, in the experiment with KM12 colon, in the experiment on SK-MEL-28 melanoma, in the experiment with TK-10 renal, in the experiment on SK-OV-3 ovarian and in the experiment on SF-539 CNS was > 100 µM each time. For the same compound, the TGI in the experiment with NCI-H226 lung, with SF-268 CNS, in the experiment on SF-295 CNS, with SK-MEL-2 melanoma, in the experiment with PC-3 prostate and in the experiment with BT-549 breast was > 100 µM in each case. For the same compound, the TGI with MDA-MB-231 breast and in the experiment with A549 NSCLC was > 100 µM each time.
